Measured values taken from patent US4262013A, “Mevalonolactone derivatives and process for the preparation thereof” (Sankyo Company Limited, priority 1977, dated 1981).
Read-outs that look alike come from different tables or passages of the source.

Experiments:
[1] = target: T1, 3-hydroxy-3-methylglutaryl coenzyme A reductase (Rattus norvegicus, UniProt P51639); assay: Assay Method A: inhibitory activity to cholesterol biosynthesis in vitro, 50% inhibition of the enzyme activity (method of Knauss et al); assay type: biochemical
T1 construct: from tissue
T1 sequence (P51639 1-887): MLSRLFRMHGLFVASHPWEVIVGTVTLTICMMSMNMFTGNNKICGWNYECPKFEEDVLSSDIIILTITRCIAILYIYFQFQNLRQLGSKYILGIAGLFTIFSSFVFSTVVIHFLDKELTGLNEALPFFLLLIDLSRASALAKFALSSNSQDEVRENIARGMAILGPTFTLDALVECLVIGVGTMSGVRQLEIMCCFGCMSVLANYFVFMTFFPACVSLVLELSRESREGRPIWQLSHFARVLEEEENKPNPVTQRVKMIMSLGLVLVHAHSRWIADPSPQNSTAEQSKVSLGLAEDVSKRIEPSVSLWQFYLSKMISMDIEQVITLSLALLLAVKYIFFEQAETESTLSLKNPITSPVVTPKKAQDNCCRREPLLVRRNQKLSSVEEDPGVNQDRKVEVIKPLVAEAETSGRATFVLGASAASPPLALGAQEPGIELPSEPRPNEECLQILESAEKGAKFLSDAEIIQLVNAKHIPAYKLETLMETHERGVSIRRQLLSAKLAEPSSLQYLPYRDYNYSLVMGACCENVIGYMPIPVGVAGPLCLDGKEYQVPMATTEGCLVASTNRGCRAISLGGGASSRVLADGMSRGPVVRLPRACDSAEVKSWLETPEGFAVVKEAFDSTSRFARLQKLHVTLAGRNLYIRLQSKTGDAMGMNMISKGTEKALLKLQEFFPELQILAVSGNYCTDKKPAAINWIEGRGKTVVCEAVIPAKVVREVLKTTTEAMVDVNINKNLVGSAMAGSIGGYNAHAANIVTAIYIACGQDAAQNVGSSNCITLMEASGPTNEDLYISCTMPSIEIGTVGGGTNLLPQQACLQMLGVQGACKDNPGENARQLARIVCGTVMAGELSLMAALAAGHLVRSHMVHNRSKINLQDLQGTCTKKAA

[2] = tested on: cholesterol biosynthesis in L-cells of mice (929); assay: Assay Method B: inhibition of 14C-cholesterol biosynthesis from 14C-acetic acid in L-cells of mice (929) (method of Kandutsch et al); assay type: cell-based; conditions: Mus musculus, mole concentration for 50% inhibition of cholesterol biosynthesis, read-out: ID50 (M) Assay Method B
Excerpt: The inhibitory activity of these compounds to cholesterol biosynthesis was further evaluated according to the method described in A. A. Kandutsch et al, Journal of Biological Chemistry, 248, 8408 (1973) by measuring the amount of ^14 C-cholesterol biosynthesized from ^14 C-acetic acid using L-cells of mice (929), and the activity was expressed by the mole concentration [I50 (M)] for 50% inhibition of cholesterol biosynthesis (Assay Method B).

[3] = Assay Method A, in vitro, mole concentration for 50% inhibition of the enzyme activity, read-out: ID50 (M) Assay Method A

Structure (SMILES) | IC50 [1, 3] [M] | IC50 [2] [M] | IC50 [1] [M]
CC1(O)CC(=O)OC(c2ccc(OCc3ccccc3)cc2)C1 (stereo not drawn) [A, 3-Hydroxy-3-methyl-5-(p-benzyloxyphenyl)-5-pentanolide] | 6.2e-05 | 0.00013 | –
CC1(O)CC(=O)OC(c2ccc(-c3ccccc3)cc2)C1 (stereo not drawn) [B, 3-Hydroxy-3-methyl-5-(4-biphenylyl)-5-pentanolide] | 0.0001 | 0.00016 | –
CC1(O)CC(=O)OC(CCc2ccccc2)C1 (stereo not drawn) [C, 3-Hydroxy-3-methyl-7-phenyl-5-heptanolide] | 0.00036 | 4.2e-05 | –
CCOC(=O)C(C)(C)Oc1ccc(Cl)cc1 [Clofibrate, reference compound] | – | 8e-05 | 0.001
CC1(O)CC(=O)OC(CCc2ccccc2)C1Br (stereo not drawn) [Compound D, 3-Hydroxy-3-methyl-4-bromo-7-phenyl-5-heptanolide] | 0.0001 | – | –
CC1C(CCc2ccccc2)OC(=O)CC1(C)O (stereo not drawn) [E, 3-Hydroxy-3,4-dimethyl-7-phenyl-5-heptanolide] | 6.7e-05 | – | –
CC1(O)CC(=O)OC(CCc2ccc(O)cc2)C1 (stereo not drawn) [F, 3-Hydroxy-3-methyl-7-(p-hydroxyphenyl)-5-heptanolide] | 6.6e-05 | – | –
CC(=O)OC1(C)CC(=O)OC(CCc2ccc(OCc3ccccc3)cc2)C1 (stereo not drawn) [G, 3-Acetoxy-3-methyl-7-(p-benzyloxyphenyl)-5-heptanolide] | 4.5e-05 | 3.1e-05 | –
CC1(O)CC(=O)OC(CCc2ccc(OCc3ccccc3)cc2)C1 (stereo not drawn) [H, 3-Hydroxy-3-methyl-7-(p-benzyloxyphenyl)-5-heptanolide] | 4.2e-06 | 6e-06 | –
CC1(O)CC(=O)OC(CCc2ccccc2OCc2ccccc2)C1 (stereo not drawn) [I, 3-Hydroxy-3-methyl-7-(o-benzyloxyphenyl)-5-heptanolide] | 3.3e-05 | 5e-05 | –
CC1(O)CC(=O)OC(CCc2ccc(OCc3ccccc3)cc2)C1Br (stereo not drawn) [J, 3-Hydroxy-3-methyl-4-bromo-7-(p-benzyloxyphenyl)-5-heptanolide] | 5.6e-06 | 3e-05 | –
CC1(O)CC(=O)OC(CCc2ccccc2OCc2ccccc2)C1Br (stereo not drawn) [K, 3-Hydroxy-3-methyl-4-bromo-7-(o-benzyloxyphenyl)-5-heptanolide] | 4.7e-05 | 8.8e-05 | –
CC1(O)CC(=O)OC(CCc2ccc(OCc3ccc(F)cc3)cc2)C1 (stereo not drawn) [L, 3-Hydroxy-3-methyl-7-[p-(p-fluorobenzyloxy)phenyl]-5-heptanolide] | – | 5e-05 | –
CC1(O)CC(=O)OC(CCc2ccc(OCc3ccc(Cl)cc3)cc2)C1 (stereo not drawn) [M, 3-Hydroxy-3-methyl-7-[p-(p-chlorobenzyloxy)phenyl]-5-heptanolide] | – | 1.9e-05 | –
CC1(O)CC(=O)OC(CCc2ccc(Cl)cc2)C1 (stereo not drawn) [N, 3-Hydroxy-3-methyl-7-(p-chlorophenyl)-5-heptanolide] | 4.5e-05 | 3e-05 | –
CC1(O)CC(=O)OC(CCc2ccc(Cl)cc2)C1Br (stereo not drawn) [O, 3-Hydroxy-3-methyl-4-bromo-7-(p-chlorophenyl)-5-heptanolide] | 6.3e-05 | – | –
COc1ccc(CCC2CC(C)(O)CC(=O)O2)cc1 (stereo not drawn) [P, 3-Hydroxy-3-methyl-7-(p-methoxyphenyl)-5-heptanolide] | 6.3e-05 | – | –
CC1C(C=Cc2ccccc2)OC(=O)CC1(C)O (stereo not drawn) [Q, 3-Hydroxy-3,4-dimethyl-7-phenyl-6-hepten-5-olide] | 6.4e-05 | – | –
CC1(O)CC(=O)OC(C=Cc2ccc(OCc3ccccc3)cc2)C1 (stereo not drawn) [R, 3-Hydroxy-3-methyl-7-(p-benzyloxyphenyl)-6-hepten-5-olide] | 8.6e-06 | 1.3e-05 | –
CC1(O)CC(=O)OC(C=Cc2cccc(OCc3ccccc3)c2)C1 (stereo not drawn) [S, 3-Hydroxy-3-methyl-7-(m-benzyloxyphenyl)-6-hepten-5-olide] | 7.1e-05 | 0.00012 | –
COc1cc(CCC2CC(C)(O)CC(=O)O2)ccc1OCc1ccccc1 (stereo not drawn) [T, 3-Hydroxy-3-methyl-7-(p-benzyloxy-m-methoxyphenyl)-5-heptanolide] | 2.1e-05 | 1.1e-05 | –
Cc1cc(OCc2ccccc2)cc(C)c1CCC1CC(C)(O)CC(=O)O1 (stereo not drawn) [U, 3-Hydroxy-3-methyl-7-(p-benzyloxy-o,o'-dimethylphenyl)-5-heptanolide] | 3.8e-06 | 5.4e-06 | –
Cc1cc(OCc2ccccc2)cc(C)c1CCC1OC(=O)CC(C)(O)C1Br (stereo not drawn) [V, 3-Hydroxy-3-methyl-4-bromo-7-(p-benzyloxy-o,o'-dimethylphenyl)-5-heptanolide] | – | 1e-05 | –
COc1cc(CCC2CC(C)(O)CC(=O)O2)ccc1OC(C)=O (stereo not drawn) [W, 3-Hydroxy-3-methyl-7-(p-acetoxy-m-methoxyphenyl)-5-heptanolide] | 4.5e-05 | 8.3e-05 | –
Cc1cc(OC(=O)c2ccccc2)cc(C)c1CCC1CC(C)(O)CC(=O)O1 (stereo not drawn) [X, 3-Hydroxy-3-methyl-7-(p-benzoyloxy-o,o'-dimethylphenyl)-5-heptanolide] | 3.9e-06 | 6.5e-06 | –
CC1(O)CC(=O)OC(CCCc2ccc(OCc3ccccc3)cc2)C1 (stereo not drawn) [Y, 3-Hydroxy-3-methyl-8-(p-benzyloxyphenyl)-5-octanolide] | 4e-06 | 7e-06 | –
CC1(O)CC(=O)OC(CCCc2ccc(OCc3ccccc3)cc2)C1Br (stereo not drawn) [Z, 3-Hydroxy-3-methyl-4-bromo-8-(p-benzyloxyphenyl)-5-octanolide] | 6.7e-06 | 1.2e-05 | –
